Source: ChEMBL document CHEMBL5465560, “Selectivity Literature for EUbOPEN Chemogenomic Library” (2024)

Key:
[1] = target: Serine/threonine-protein kinase 33 (Homo sapiens) (UniProt Q9BYT3); test: Selectivity interaction (KinomeScan (DiscoverX)) EUB0001049a STK33; details: at 1 µM
[2] = target: T1, Interleukin-1 receptor-associated kinase 3 (Homo sapiens) (UniProt Q9Y616); test: Selectivity interaction (KinomeScan (DiscoverX)) EUB0000045b IRAK3
T1 sequence (whole entry): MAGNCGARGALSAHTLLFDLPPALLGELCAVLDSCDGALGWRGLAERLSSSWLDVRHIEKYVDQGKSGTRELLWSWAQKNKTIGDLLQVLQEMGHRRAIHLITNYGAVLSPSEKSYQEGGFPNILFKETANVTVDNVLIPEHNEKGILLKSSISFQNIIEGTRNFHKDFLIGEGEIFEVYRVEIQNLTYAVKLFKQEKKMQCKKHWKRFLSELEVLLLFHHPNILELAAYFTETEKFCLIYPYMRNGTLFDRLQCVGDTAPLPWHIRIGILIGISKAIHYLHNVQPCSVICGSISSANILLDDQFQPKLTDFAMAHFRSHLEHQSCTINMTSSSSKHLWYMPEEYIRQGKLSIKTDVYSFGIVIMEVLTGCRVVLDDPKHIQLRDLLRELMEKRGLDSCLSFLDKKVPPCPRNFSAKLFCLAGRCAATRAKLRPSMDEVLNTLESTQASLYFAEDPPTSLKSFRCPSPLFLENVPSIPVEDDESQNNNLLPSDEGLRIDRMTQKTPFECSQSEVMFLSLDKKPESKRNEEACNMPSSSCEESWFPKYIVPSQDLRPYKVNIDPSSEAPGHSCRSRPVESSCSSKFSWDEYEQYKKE

[3] = target: T2, Tyrosine-protein kinase JAK3 (Homo sapiens) (UniProt P52333); test: Selectivity interaction (KinomeScan (DiscoverX)) EUB0000092b JAK3; details: at 10 µM
T2 sequence (whole entry): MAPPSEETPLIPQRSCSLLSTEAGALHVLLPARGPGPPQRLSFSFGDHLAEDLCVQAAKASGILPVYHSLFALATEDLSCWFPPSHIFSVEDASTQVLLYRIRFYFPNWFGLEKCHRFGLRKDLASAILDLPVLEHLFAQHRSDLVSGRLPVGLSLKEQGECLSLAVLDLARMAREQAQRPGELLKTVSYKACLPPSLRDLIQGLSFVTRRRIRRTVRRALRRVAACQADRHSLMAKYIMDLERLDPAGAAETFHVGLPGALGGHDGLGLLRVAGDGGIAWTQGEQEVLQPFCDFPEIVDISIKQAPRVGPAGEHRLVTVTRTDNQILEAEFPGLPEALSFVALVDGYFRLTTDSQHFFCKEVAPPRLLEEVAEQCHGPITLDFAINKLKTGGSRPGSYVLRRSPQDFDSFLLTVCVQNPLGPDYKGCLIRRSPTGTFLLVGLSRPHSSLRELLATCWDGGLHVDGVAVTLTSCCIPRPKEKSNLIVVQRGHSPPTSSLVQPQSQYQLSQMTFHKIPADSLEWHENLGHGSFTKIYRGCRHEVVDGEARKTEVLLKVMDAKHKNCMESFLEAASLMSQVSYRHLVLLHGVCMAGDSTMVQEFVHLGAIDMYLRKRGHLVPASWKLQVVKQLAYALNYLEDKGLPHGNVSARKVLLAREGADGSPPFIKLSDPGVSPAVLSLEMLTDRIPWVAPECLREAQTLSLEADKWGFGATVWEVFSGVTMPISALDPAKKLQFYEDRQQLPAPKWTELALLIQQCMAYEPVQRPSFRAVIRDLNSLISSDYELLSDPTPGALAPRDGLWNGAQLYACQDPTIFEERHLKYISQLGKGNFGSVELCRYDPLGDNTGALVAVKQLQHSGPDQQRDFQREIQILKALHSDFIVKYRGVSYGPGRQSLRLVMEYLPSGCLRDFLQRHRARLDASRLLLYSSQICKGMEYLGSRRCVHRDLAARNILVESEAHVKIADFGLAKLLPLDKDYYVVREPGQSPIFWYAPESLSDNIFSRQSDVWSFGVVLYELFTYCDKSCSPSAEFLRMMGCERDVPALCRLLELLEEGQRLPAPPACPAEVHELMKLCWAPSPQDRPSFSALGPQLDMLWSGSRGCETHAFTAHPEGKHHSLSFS

[4] = target: T3, Inhibitor of nuclear factor kappa-B kinase subunit epsilon (Homo sapiens) (UniProt Q14164); test: Selectivity interaction (KinomeScan (DiscoverX)) EUB0001619a IKBKE; details: at 1 µM
T3 sequence (whole entry): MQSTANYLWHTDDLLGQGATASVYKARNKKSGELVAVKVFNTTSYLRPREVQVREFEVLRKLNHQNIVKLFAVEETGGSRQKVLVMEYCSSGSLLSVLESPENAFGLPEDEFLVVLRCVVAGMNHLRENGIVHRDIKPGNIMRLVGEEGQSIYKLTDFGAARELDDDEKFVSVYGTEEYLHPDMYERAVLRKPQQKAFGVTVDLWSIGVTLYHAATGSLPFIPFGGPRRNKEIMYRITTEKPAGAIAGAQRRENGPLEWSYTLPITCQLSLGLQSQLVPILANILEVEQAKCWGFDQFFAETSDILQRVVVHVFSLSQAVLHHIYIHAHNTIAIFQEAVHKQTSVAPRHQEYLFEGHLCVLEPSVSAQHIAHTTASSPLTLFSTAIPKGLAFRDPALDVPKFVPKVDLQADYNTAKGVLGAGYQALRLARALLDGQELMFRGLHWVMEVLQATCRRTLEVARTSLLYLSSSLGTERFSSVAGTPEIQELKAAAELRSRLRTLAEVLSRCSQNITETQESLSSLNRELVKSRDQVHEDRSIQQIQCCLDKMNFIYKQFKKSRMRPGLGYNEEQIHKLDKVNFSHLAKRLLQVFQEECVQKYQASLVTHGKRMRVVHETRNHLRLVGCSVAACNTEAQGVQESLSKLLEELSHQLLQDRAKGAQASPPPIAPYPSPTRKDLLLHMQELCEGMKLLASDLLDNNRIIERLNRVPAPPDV

Serine/threonine-protein kinase 33 (Homo sapiens), sequence (Q9BYT3 whole entry, looked up): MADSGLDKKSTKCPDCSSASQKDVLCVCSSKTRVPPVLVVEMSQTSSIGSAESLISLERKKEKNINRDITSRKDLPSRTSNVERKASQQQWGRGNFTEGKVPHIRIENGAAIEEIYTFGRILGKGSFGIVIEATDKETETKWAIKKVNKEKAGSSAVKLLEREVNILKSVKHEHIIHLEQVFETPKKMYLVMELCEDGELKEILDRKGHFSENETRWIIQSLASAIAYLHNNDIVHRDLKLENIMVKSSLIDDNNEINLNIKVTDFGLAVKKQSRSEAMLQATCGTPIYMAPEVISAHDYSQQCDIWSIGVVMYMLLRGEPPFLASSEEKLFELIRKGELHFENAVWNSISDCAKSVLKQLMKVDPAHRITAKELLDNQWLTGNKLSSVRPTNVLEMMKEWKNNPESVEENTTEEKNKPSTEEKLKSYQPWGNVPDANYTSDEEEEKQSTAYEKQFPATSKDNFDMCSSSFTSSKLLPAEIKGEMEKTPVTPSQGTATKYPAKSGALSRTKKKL

With `COc1cc(Nc2nc(C)cc(-c3cnn4nc(OC)ccc34)n2)cc(C(F)(F)F)c1` the % of control [1] was 94%.

`C=CC(=O)Nc1cc(-n2c(=O)ccc3cnc4ccc(-c5ccc(NS(C)(=O)=O)cc5)cc4c32)ccc1C` was tested, and the % of control ([2]; at 1 µM) was 73% and the % of control ([2]; at 10 µM) was 34%.

With `CCC(=O)N1CCN(c2ccc(-n3c(=O)ccc4cnc5ccc(-c6cnc7ccccc7c6)cc5c43)cc2C(F)(F)F)CC1` the % of control [3] was 100%.

`N#Cc1cccc(-c2c[nH]c3ncnc(N4CCOCC4)c23)c1` was tested, and the % of control [4] was 100%.
